Measured values published in patent US5756348A (Synaptic Pharmaceutical Corporation, priority 1994, dated 1998).

Columns and labels:
[1] = biological target: T1, glycine transporter encoded by rB20a (Rattus norvegicus, UniProt P28572); test: Competition for [3H]glycine uptake by COS-7 cells transfected with rB20a; assay type: cell-based; details: for inhibition at 1000 µM / inhibition at 10 µM / inhibition at 100 µM: COS-7, 10 min, read-out: % displacement of specific [3H]glycine uptake; for % displacement of specific [3H]glycine uptake: 50 nM [3H]glycine, 10 minutes, 37° C.
T1 construct: expressed in transfected cells
T1 sequence (P28572 1-638): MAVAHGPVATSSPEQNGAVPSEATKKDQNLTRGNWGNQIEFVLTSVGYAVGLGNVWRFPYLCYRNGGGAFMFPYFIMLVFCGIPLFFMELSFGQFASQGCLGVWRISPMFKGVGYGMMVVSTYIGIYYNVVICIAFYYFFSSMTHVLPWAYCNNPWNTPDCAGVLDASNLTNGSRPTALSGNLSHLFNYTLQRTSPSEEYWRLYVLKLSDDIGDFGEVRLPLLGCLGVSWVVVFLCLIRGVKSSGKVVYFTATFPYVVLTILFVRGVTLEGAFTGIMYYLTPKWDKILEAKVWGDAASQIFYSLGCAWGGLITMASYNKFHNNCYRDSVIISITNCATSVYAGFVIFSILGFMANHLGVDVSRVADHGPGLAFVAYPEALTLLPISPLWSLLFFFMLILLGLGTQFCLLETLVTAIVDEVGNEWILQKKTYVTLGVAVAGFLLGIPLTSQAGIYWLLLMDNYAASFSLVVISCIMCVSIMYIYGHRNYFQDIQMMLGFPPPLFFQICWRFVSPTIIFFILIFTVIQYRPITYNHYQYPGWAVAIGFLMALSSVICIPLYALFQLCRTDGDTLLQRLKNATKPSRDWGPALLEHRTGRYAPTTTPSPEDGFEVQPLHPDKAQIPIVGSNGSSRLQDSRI
Protocol: (§1) These two clones were constructed into a full-length clone (designated rB20a) by ligation at their internal Nco I sites and then cloned into the eukaryotic expression vector pSVL (Pharmacia LXB Biotechnology, Piscataway, N.J.). Transient transfection of COS cells was carried out using DEAE-dextran with DMSO according to the method of Lopata et al. (1984) with minor modifications. COS cells were grown in six-well plates (37° C.,5%CO2) in high glucose Dulbecco's modified Eagle medium supplemented with 10% bovine calf serum, 100 U/ml penicillin G, and 100 μg/ml streptomycin sulfate. Cells were routinely used two days after transfection for transport studies.
(§2) Plates were incubated at 37° C. for 10 or 20 minutes, then washed rapidly 3× with HBS. Cells were solubilized with 0.05% sodium deoxycholate/0.1N NaOH (1 ml/well), 0.5 ml aliquots were removed, neutralized with 1N HCl, and radioactivity was determined by scintillation counting. Protein was quantified in an aliquot of the solubilized cells with the Bradford Reagent (Biorad, Richmond, Calif.), according to the manufacturer's directions.
Nonspecific uptake was determined with 1 mM

[2] = biological target: T1, glycine transporter encoded by rB20a; test: Transport of radiolabeled substrates by COS cells transiently transfected with rB20a; assay type: cell-based; details: data not shown
Protocol: as §1, §2

[3] = tested on: high-affinity transporter in rat brain synaptosomes; details: read-out: Km for glycine; cited from earlier work
[4] = tested on: high-affinity transporter present in glial cell cultures; details: read-out: Km for glycine; cited from earlier work

Molecule | inhibition at 1000 µM [1] [%] | effect of rB20a expression on uptake of the radiolabeled substrate [2] | further results
NC[C@H](O)c1ccc(O)c(O)c1 [(-)-norepinephrine] | 0 |  | 
NCCCC(=O)O [GABA, gamma-aminobutyric acid] | 0 |  | 
C[C@H](N)C(=O)O [L-alanine] | 2 |  | 
N[C@@H](CCC(=O)O)C(=O)O [L-glutamate] | 0 |  | 
N[C@@H](CO)C(=O)O [L-serine] | 4 |  | % displacement of specific [3H]glycine uptake ([1]; inhibitor 1 mM): Neither α-(methylamino) isobutyric acid (1 mM), a substrate for system A, nor L-serine (1 mM), a substrate for system ASC, significantly competed
NCCc1c[nH]c2ccc(O)cc12 [[^3 H]5-HT] |  | did not significantly alter | 
NCCCC(=O)O [[^3 H]GABA] |  | did not significantly alter | 
NCCc1ccc(O)c(O)c1 [[^3 H]dopamine] |  | did not significantly alter | 
NCCc1cnc[nH]1 [[^3 H]histamine] |  | did not significantly alter | 
[3H][C@](O)(CN)c1ccc(O)c(O)c1 [[^3 H]norepinephrine] |  | did not significantly alter | 
N[C@@H](Cc1ccc(O)cc1)C(=O)O [[^3 H]tyrosine] |  | did not significantly alter | 
NCCc1ccc(O)c(O)c1 [dopamine] | 0 |  | 
CCOC(=O)CN [glycine ethyl ester] | 32 |  | inhibition at 10 µM [1]: 0%; inhibition at 100 µM [1]: 0%; % displacement of specific [3H]glycine uptake ([1]; inhibitor 10 μM): no inhibition; % displacement of specific [3H]glycine uptake ([1]; inhibitor 100 μM): no inhibition
COC(=O)CN [glycine methyl ester] | 42 |  | inhibition at 10 µM [1]: 0%; inhibition at 100 µM [1]: 0%; % displacement of specific [3H]glycine uptake ([1]; inhibitor 10 μM): no inhibition; % displacement of specific [3H]glycine uptake ([1]; inhibitor 100 μM): no inhibition
NCC(=O)O [glycine] | 100 |  | Km [3]: 50 µM; Km [4]: 95 µM
NCCc1c[nH]cn1 [histamine] | 0 |  | 
CNCC(=O)O [sarcosine, N-methylglycine] | 100 |  | inhibition at 10 µM [1]: 23%; inhibition at 100 µM [1]: 64%; IC50 ([1]; estimated from inhibition at three concentrations): ~50 µM
CNC(C)(C)C(=O)O [α-(methylamino)isobutyric acid] | 3 |  | % displacement of specific [3H]glycine uptake ([1]; inhibitor 1 mM): Neither α-(methylamino) isobutyric acid (1 mM), a substrate for system A, nor L-serine (1 mM), a substrate for system ASC, significantly competed
^3 H]glutamate |  | did not significantly alter | 
